# Experimental data as given in publication PMC6893700 (Viruses, 2019).
# Where two headings read alike, the source gives them in different places.
# Assays:
# ZIKV strain PAN2015 = assay: Plaque reduction inhibition assay, ZIKV PAN2015 in Vero E6 cells; type: cell-based; details: Zika virus, Vero C1008
# in vitro [1] = details: rhesus monkey
# DENV-2-V594 = assay: Plaque reduction inhibition assay, DENV-2 in LLC-MK2 cells; type: cell-based; details: Dengue virus, DENV2
# ZIKV strain PLCal_ZV = assay: Plaque reduction inhibition assay, ZIKV PLCal_ZV in Vero E6 cells; type: cell-based; details: Zika virus, Vero C1008; plaque reduction, Vero E6 cells; read-out: IC50 PLCal_ZV
# ZIKV (PAN2016) = assay: Time-of-addition experiment, ZIKV PAN2016 in Vero E6 cells; type: cell-based, Zika virus (ZIKV); details: for inhibition at 7.5 µM: Zika virus, Vero C1008, 1 h
# DENV-3-V1043 = assay: Plaque reduction inhibition assay, DENV-3 in LLC-MK2 cells; type: cell-based; details: Dengue virus, DENV3
# ZIKV strain PAN2016 [2] = assay: Plaque reduction inhibition assay, ZIKV PAN2016 in Vero E6 cells; type: cell-based; details: Zika virus, Vero C1008, Vero E6 cells
# ZIKV strain FLR [3] = assay: Plaque reduction inhibition assay, ZIKV FLR in Vero E6 cells; type: cell-based; details: Zika virus, Vero C1008; plaque reduction, Vero E6 cells; read-out: IC50 FLR
# ZIKV strain FLR [4] = type: cell-based, Zika virus (ZIKV); details: ZIKV FLR
# in vitro [5] = details: African green monkey
# [6] = molecular target: ZIKV full-length E protein (Zika virus, UniProt A0A024B7W1); type: binding; details: ELISA
# Chain of ZIKV full-length E protein (A0A024B7W1 291-794): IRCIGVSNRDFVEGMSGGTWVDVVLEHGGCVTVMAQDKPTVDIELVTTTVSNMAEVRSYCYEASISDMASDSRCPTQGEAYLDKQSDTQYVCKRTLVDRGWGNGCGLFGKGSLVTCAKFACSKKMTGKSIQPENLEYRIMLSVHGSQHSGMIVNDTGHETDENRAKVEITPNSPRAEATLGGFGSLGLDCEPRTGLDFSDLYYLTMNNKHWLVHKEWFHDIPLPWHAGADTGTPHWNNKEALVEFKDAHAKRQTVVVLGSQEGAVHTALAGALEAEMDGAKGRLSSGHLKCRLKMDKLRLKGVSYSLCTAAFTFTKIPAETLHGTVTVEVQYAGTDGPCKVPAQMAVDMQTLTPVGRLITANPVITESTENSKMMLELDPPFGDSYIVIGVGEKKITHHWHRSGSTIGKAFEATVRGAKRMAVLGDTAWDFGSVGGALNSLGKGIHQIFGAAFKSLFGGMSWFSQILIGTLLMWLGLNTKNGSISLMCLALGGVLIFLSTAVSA
# [7] = test system: ZIKV mosquito strain MEX 2–81; assay: Plaque reduction inhibition assay, ZIKV MEX 2–81 in Vero E6 cells; type: cell-based; details: Zika virus, Vero C1008; plaque reduction, Vero E6 cells; read-out: IC50 MEX 2–81
# Vero E6 cells [8] = assay: Initial screening: cytotoxicity observed under a microscope; details: initial screening at 20 µM
# ZIKV strain PRVABC59 [9] = assay: Plaque reduction inhibition assay, ZIKV PRVABC59 in Vero E6 cells; type: cell-based; details: Zika virus, Vero C1008; plaque reduction, Vero E6 cells
# ZIKV strain R103451 = assay: Plaque reduction inhibition assay, ZIKV R103451 in Vero E6 cells; type: cell-based; details: Zika virus, Vero C1008; plaque reduction, Vero E6 cells; read-out: IC50 R103451
# [10] = molecular target: T1, ZIKV envelope protein domain III (EDIII) protein (Zika virus, UniProt A0A024B7W1); type: binding; details: ELISA
# T1 construct: E residues 298–409 fused with a C-terminal human Fc; made in house
# T1 sequence (A0A024B7W1 588-699): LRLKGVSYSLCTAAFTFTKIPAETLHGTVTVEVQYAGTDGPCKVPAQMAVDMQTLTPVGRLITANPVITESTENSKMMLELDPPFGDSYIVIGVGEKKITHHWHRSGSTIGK
# [11] = test system: ZIKV rhesus macaque strain MR 766; assay: Plaque reduction inhibition assay, ZIKV MR 766 in Vero E6 cells; type: cell-based; details: Zika virus, Vero C1008, in Macaca mulatta; plaque reduction, Vero E6 cells; read-out: IC50 MR 766
# ZIKV strain R116265 = assay: Plaque reduction inhibition assay, ZIKV R116265 in Vero E6 cells; type: cell-based; details: Zika virus, Vero C1008
# DENV-4-PR 06-65-740 = assay: Plaque reduction inhibition assay, DENV-4 in LLC-MK2 cells; type: cell-based; details: Dengue virus, DENV4
# DENV-1-V1792 = assay: Plaque reduction inhibition assay, DENV-1 in LLC-MK2 cells; type: cell-based; details: Dengue virus, DENV1
# [12] = Combinatorial cytotoxicity of gossypol with other natural products, CCK8; details: African green monkey
# Vero E6 cells [13] = assay: as above; details: Vero E6; for Fold of Enhancement of cytotoxicity (natural product with gossypol): (CC50 alone)/(CC50 in the mixture)—1
# ZIKV strain PAN2016 [14] = type: cell-based, Zika virus (ZIKV)
# ZIKV strain PRVABC59 [15] = type: cell-based, Zika virus (ZIKV)
structure (smiles),measurement,setting,value
"C[C@@H]1CC[C@@]2(OC1)O[C@H]1[C@@H](O)[C@H]3[C@@H]4CC[C@H]5C[C@@H](O[C@@H]6O[C@H](CO)[C@H](O[C@@H]7O[C@H](CO)[C@@H](O)[C@H](O[C@@H]8OC[C@@H](O)[C@H](O)[C@H]8O)[C@H]7O[C@@H]7O[C@H](CO)[C@H](O)[C@H](O[C@@H]8O[C@H](CO)[C@@H](O)[C@H](O)[C@H]8O)[C@H]7O)[C@H](O)[C@H]6O)[C@H](O)C[C@]5(C)[C@H]4CC[C@]3(C)[C@H]1[C@@H]2C [Digitonin, digitonin]",IC50,ZIKV strain PAN2015,5 ± 0.01 µM
same,CC50 at 3 days,in vitro [1],59.02 ± 0.33 µM
same,IC50,DENV-2-V594,6.56 ± 0.21 µM
same,IC50,ZIKV strain PLCal_ZV,3.19 ± 0.25 µM
same,inhibition at 7.5 µM,"ZIKV (PAN2016); read-out: inhibition of ZIKV infection, step c: cotreatment at 4 °C (attachment)",49 to 74%
same,inhibition at 7.5 µM,"ZIKV (PAN2016); read-out: inhibition of ZIKV infection, step d: cotreatment at 37 °C",≥ 94%
same,inhibition at 7.5 µM,"ZIKV (PAN2016); read-out: inhibition of ZIKV infection, step e: penetration (membrane fusion)",49 to 74%
same,inhibition at 7.5 µM,"ZIKV (PAN2016); read-out: inhibition of ZIKV infection, step f: postentry stage",49 to 74%
same,"inhibition of ZIKV infection, step a: pretreatment of ZIKV","ZIKV (PAN2016); natural product with ZIKV 37 °C 1 h before cells, gossypol 15 µM, curcumin 30 µM, digitonin 7.5 µM, conessine 30 µM",no effect
same,IC50,DENV-3-V1043,4.07 ± 0.83 µM
same,IC90,"ZIKV strain PAN2016 [2]; 90% plaque reduction, read-out: IC90 against ZIKV PAN2016 strain",~7.91 µM
same,IC50,"ZIKV strain PAN2016 [2]; plaque reduction, read-out: IC50 PAN2016",4.31 ± 0.23 µM
same,IC50,ZIKV strain FLR [3],3.34 ± 0.22 µM
same,CI (combination index) of gossypol with the named natural product,ZIKV strain FLR [4]; CI < 1 synergy,0.95
same,IC50,"ZIKV strain FLR [4]; Zika virus, Vero C1008, Vero E6, natural product without combination, read-out: IC50 Alone",3.86 ± 0.02 µM
same,CC50 at 3 days,in vitro [5],56.3 ± 1.2 µM
same,binding to ZIKV full-length E protein (in words),[6],did not bind
same,IC50,[7],3.84 ± 0.12 µM
same,cytotoxicity in Vero E6 cells observed under a microscope,Vero E6 cells [8],no obvious cytotoxicity
same,IC50,ZIKV strain PRVABC59 [9],3.76 ± 1.12 µM
same,IC50,ZIKV strain R103451,4.3 ± 0.43 µM
same,binding to ZIKV EDIII protein (in words),[10],did not bind
same,IC50,[11],3.77 ± 0.31 µM
same,IC50,ZIKV strain R116265,6.52 ± 0.59 µM
same,IC50,DENV-4-PR 06-65-740,6.44 ± 0.34 µM
same,IC50,DENV-1-V1792,5.21 ± 0.35 µM
same,CC50 at 3 days,[12],50.63 ± 0.22 µM
same,Fold of Enhancement of cytotoxicity (natural product with gossypol),Vero E6 cells [13],2.60
same,Fold of Enhancement of cytotoxicity (natural product with gossypol),Vero E6 cells [13]; listed as digitonin,about 2.60
same,"CI (combination index, cytotoxicity) of gossypol with the named natural product",Vero E6 cells [13]; based on CC50,1.36
same,Fold of Enhancement (natural product with gossypol),"ZIKV strain PAN2016 [14]; ZIKV PAN2016, (IC50 alone)/(IC50 in the mixture)—1",2.21
same,CI (combination index) of gossypol with the named natural product,"ZIKV strain PAN2016 [14]; ZIKV PAN2016, CI < 1 synergy",0.60
same,IC50,"ZIKV strain PAN2016 [14]; Zika virus, Vero C1008, ZIKV PAN2016, Vero E6, natural product without combination, read-out: IC50 Alone",4.85 ± 0.24 µM
same,Fold of Enhancement (natural product with gossypol),"ZIKV strain PRVABC59 [15]; ZIKV PRVABC59, (IC50 alone)/(IC50 in the mixture)—1",5.98
same,CI (combination index) of gossypol with the named natural product,"ZIKV strain PRVABC59 [15]; ZIKV PRVABC59, CI < 1 synergy",0.29
same,IC50,"ZIKV strain PRVABC59 [15]; Zika virus, Vero C1008, ZIKV PRVABC59, Vero E6, natural product without combination, read-out: IC50 Alone",3.84 ± 0.81 µM
